Reference: patent US8969413B2

Target: T1, human ρ1 GABAC receptors (Homo sapiens, UniProt P24046)
T1 construct: expressed in transfected cells; host or cells: Xenopus laevis oocytes injected with ρ1 mRNA
Assay: GABAC receptor two-electrode voltage clamp in Xenopus laevis oocytes
Type: cell-based
Description: Human ρ1 cDNA encapsulated in pcDNA1.1 was linearized with Not1. Linearized cDNA was transcribed to mRNA using the T7 “mMESSAGE mMACHINE” kit (Ambion Inc. Austin, Tex., USA) as previously described. […] Eur. J. Pharmacol. 2001, 430, 185-192. GABAC receptor activity assays were performed in oocytes harvested from Xenopus laevis (housed in the Department of Veterinary Science at the University of Sydney) and defolliculated. The oocytes were stored in ND96 solution (in mM) NaCl (96), KCl (2), MgCl2 (1), CaCl2 (1.8), HEPES (hemi-Na salt; 5) supplemented with sodium pyruvate (2.5), theophylline (0.5), and 50 μg/ml^−1 gentamycin for 2-5 days post-injection.
Electrophysiological methods were performed as previously described. Hertz L, Juurlink B H J, Hertz E, Fosmark H and Schousboe A. Preparation of Primary Cultures of Mouse (Rat) Astrocytes, in A Dissection and Tissue Culture Mnual of the Nervous System (Shahar A, de Vellis J, Vernadakis A and Haber B eds) pp 105-108, Alan R. Liss, Inc., New York, 1989 Stage V-VI oocytes were injected with 10 ng 50 nl^−1 of ρ1 mRNA and then stored at 16° C. Recordings of receptor activity were obtained for 2-5 days by a two-electrode voltage clamp by means of a Geneclamp 500 amplifier (Axon Instruments Inc., Foster City, Calif.), a MacLab 2e recorder (AD Instruments, Sydney, NSW), and Chart version 3.6.3 program. Oocytes were voltage clamped at −60 mV, and the preparation was continually perfused with ND96 solution at room temperature. […] Compound 2 (CPP-115) was tested on three oocytes from at least two harvests.

T1 sequence (P24046 21-479 limits assumed): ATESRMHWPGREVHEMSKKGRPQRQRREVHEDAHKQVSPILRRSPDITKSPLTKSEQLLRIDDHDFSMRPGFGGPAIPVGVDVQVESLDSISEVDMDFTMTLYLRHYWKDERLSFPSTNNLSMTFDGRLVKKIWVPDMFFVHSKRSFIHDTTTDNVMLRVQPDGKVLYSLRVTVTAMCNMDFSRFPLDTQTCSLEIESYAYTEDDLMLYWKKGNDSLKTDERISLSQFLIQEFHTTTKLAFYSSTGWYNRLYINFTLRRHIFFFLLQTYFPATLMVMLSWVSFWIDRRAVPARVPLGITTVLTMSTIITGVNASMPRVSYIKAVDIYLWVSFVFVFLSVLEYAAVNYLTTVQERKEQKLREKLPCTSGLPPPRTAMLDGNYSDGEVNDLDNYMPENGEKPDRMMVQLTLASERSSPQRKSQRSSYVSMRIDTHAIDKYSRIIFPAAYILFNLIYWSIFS

N[C@H]1C[C@@H](C(=O)O)CC1=C(F)F [CPP-115]
effect as agonist or antagonist at ρ1 GABAC receptors (100 μM): no effect as an agonist or antagonist | activation of current in oocytes (100 μM alone, clamped at −60 mV): did not activate a current | reduction of the GABA response on co-application (100 μM co-applied with GABA 1 μM, p>0.05, n=3): did not significantly reduce the GABA response
